Measurements from patent US20110195924A1, “Methods of Inhibiting the Interaction Between S100P and the Receptor for Advanced Glycation End-Products” (priority 2008, published 2011).
Entries after “also recorded” stand apart in the source; their conditions may differ.

Columns and labels:
MPanc96 tumors = test: MPanc96 pancreatic tumor growth and survival in mice (analogs); assay type: in vivo; conditions: mouse, in vivo
Procedure: (§1) Various cromolyn-based analogs were developed. The effects of the analogs on binding of S100P with RAGE were evaluated for the analogs using a sandwich ELISA. The effectiveness of the analogs to block cancer cell proliferatin and increase apoptosis in vitro were analyzed with and without cisplatin, 5-flurouracil and gemcitabine by MTS and FACS analysis. We also examined the ability of the analogs to inhibit S100P activation of NFkB signaling in cancer cells in vitro and in vivo. Finally, the effects of the novel analogs on tumor growth in vivo was evaluated. One analog, C5OH is shown below:
Animals were implanted with MPanc96 cells, a gemcitabine resistant model of pancreatic cancer, and then treated with gemcitabine, C5OH, or the combination. […] Noteworthy, the addition of the hydroxyl group to the carbon chain in C5 allows easy modifications of this molecule. The hydroxyl can be substituted with fluoride that can be labeled for in vivo PET imaging. This hydroxyl can also be used to develop a pro-drug form of C5 by attaching other components with an ester bond.

pancreatic cancer cells = test: Apoptosis of pancreatic cancer cells with cromolyn analogs and cytotoxic drugs; assay type: cell-based
Procedure: as §1
In this in vitro study, pancreatic cancer cells were treated with gemcitabine alone or in the presence of cromolyn analogs. The cromolyn analogs themselves have very little effect on the rates of cellular apoptosis, supporting their absence of general toxicity. However, all cromolyn analogs increased the killing of pancreatic cancer cells by gemcitabine.

S100P binding with RAGE = target: T1, S100P binding with RAGE (Homo sapiens, UniProt P25815); test: ELISA of S100P binding to RAGE (sRAGE coated plate)
T1 construct: full-length human S100P cDNA (NM_005980) was cloned into the pTrcHis2 vector; His; made in house; host or cells: bacteria (S100P)
T1 sequence (P25815 1-95): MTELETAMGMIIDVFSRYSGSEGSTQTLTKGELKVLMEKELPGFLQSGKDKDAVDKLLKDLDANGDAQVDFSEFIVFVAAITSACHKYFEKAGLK
Procedure: After removing un-bound S100P by washing with detergent, the bound S100P and RAGE complex was quantified by adding HRP labeled antibody against S100P. *, P=0.04 C5 1 μM versus cromolyn 5 μM. Two-tailed two-sample (unpaired) Student's t-tests were used to determine P values.
The plate was washed and the amount of bound S100P was quantitated using anti-S100P antibody.
The binding of S100P to RAGE was determined using an ELISA assay. sRAGE was attached to the dish and recombinant S100P (50 ng) was added with or without the indicated concentrations of cromolyn analogs. The plate was washed and the amount of bound S100P was quantitated using anti-S100P antibody.

S100B with RAGE = target: T2, S100B with RAGE (Homo sapiens, UniProt P04271); test: ELISA of S100B binding to RAGE (sRAGE coated plate)
T2 sequence (P04271 1-92): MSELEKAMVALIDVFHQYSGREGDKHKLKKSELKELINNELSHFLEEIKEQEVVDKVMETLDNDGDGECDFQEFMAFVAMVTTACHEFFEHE
Excerpt: After removing un-bound S100B by washing with detergent, bound S100B and RAGE complex was quantified by adding HRP labeled antibody against S100B.

NFκB activity = test: S100P stimulated NFκB luciferase reporter in MPanc-96 cells; assay type: cell-based, Human; conditions: S100P 100 nM, 5 hours
Procedure: MPanc-96 pancreatic cancer cell lines stably expressing an NFκB luciferase reporter were examined for the effects of S100P, cromolyn and C5. Cells were plated at 5.0×10^3 cells/well, treated for 5 hours with 100 nM of S100P, with or without cromolyn and C5 (1 μM), and activity of a luciferase gene driven by the NFkB promoter was analyzed. P=0.05 C5 versus cromolyn. Two-tailed two-sample (unpaired) Student's t-tests were used to determine P values.

NFkB activity = test: S100P induced NFkB activity in cancer cells (analogs); assay type: cell-based
Procedure: as §1, with “evaluated.” for “evaluated. One analog, C5OH is shown below:”

MPanc-96 cells = test: MPanc-96 cell apoptosis by flow cytometry, alone or with gemcitabine; assay type: cell-based, Human; conditions: 100 and 1000 nM, 72 hours
Procedure: FIG. 11 compares the effects of cromolyn and C5 alone and in combination with gemcitabine on MPanc-96 cell apoptosis. MPanc-96 cells were treated with cromolyn or C5 (100 and 1000 nM) with (+) or without (−) gemcitabine (10 μM). Apoptosis was analyzed after 72 hours by flow cytometry.

BxPC-3 cells = test: BxPC-3 cell viability, alone or with gemcitabine; assay type: cell-based; conditions: 72 hours
Procedure: BxPC-3 cells were plated at 1.0×10^3 cells/well and treated with 0 μM, 1 μM, 10 μM, and 100 μM of cromolyn or C5 alone or in combination with gemcitabine 1 μM and cell viability was analyzed after 72 hours. Two-tailed two-sample (unpaired) Student's t-tests were used to determine P values. […] BxPC-3 cells were plated at 1.0×10^3 cells/well and treated with either 100 μM of cromolyn or 1 μM C5 alone or in combination with gemcitabine (1 μM) and cell viability was analyzed after 72 hours.

O=C([O-])c1cc(=O)c2c(OCCCCCOc3cccc4oc(C(=O)[O-])cc(=O)c34)cccc2o1.[Na+].[Na+] [C5, disodium 1,5-bis(2-carboxychromon-5-yloxy)pentane]
inhibition of tumor growth and survival in vivo, relative to cromolyn (MPanc96 tumors): superior to cromolyn | cancer cell apoptosis in response to various cytoxic treatments, relative to cromolyn (pancreatic cancer cells): at lesser concentrations and to a greater extent than did cromolyn | killing of pancreatic cancer cells by gemcitabine (pancreatic cancer cells; with gemcitabine, C5 and C5OH at 10-fold lower concentration than cromolyn): worked equally well | blocking of the interaction / binding of S100P with RAGE (S100P binding with RAGE): blocked | concentration achieving the same level of S100P inhibition (S100P binding with RAGE; FIG. 7): 100 nM | potency in blocking S100P binding to RAGE relative to cromolyn or C5 (S100P binding with RAGE; analogs at 10-fold lower concentration than cromolyn): nearly equally potent and more efficient than cromolyn; also recorded: better than cromolyn | interaction of S100B with RAGE (S100B with RAGE): inhibit | reduction of S100P induced NFκB activity relative to cromolyn at the same dose (NFκB activity; 1 μM): much better than cromolyn | NFκB activity in pancreatic cancer cells in vitro (NFκB activity; compound 1 μM): inhibit | inhibition of S100P induced NFkB activity relative to cromolyn (NFkB activity): more potently and effectively than did cromolyn | apoptosis in combination with gemcitabine, relative to cromolyn with gemcitabine (MPanc-96 cells; MPanc-96, gemcitabine 10 μM): induced more apoptosis than cromolyn | MPanc-96 cell viability (MPanc-96 cells; alone and in conjunction with gemcitabine 10 μM): inhibit | inhibiting cell viability in combination with gemcitabine, relative to cromolyn (BxPC-3 cells; BxPC-3, 1-100 μM with gemcitabine 1 μM): more potent and efficacious | blocking cell growth alone, relative to cromolyn (BxPC-3 cells; BxPC-3, 10 or 100 μM): more potent and more efficacious than cromolyn | concentration giving the same level of cell reduction in combination with gemcitabine (BxPC-3 cells; BxPC-3, gemcitabine 1 μM, FIG. 10): 1 µM | BxPC-3 cell viability (BxPC-3 cells; alone and in conjunction with gemcitabine 1 μM): inhibit
